{
  "source": "patent US20090069300A1",
  "about": "“ISOQUINOLINYL AND ISOINDOLINYL DERIVATIVES AS HISTAMINE-3 ANTAGONISTS” (Wyeth, priority 2007, published 2009)",
  "note": "Counter-ions that a name gives are not always drawn.",
  "data": [
    {"target": "T1, Human Histamine H3 Receptor (Homo sapiens, UniProt Q9Y5N1)", "T1 construct": "expressed in transfected cells; host or cells: HEK293T (stably transfected; membranes prepared from the cells)", "T1 sequence (Q9Y5N1 whole entry)": "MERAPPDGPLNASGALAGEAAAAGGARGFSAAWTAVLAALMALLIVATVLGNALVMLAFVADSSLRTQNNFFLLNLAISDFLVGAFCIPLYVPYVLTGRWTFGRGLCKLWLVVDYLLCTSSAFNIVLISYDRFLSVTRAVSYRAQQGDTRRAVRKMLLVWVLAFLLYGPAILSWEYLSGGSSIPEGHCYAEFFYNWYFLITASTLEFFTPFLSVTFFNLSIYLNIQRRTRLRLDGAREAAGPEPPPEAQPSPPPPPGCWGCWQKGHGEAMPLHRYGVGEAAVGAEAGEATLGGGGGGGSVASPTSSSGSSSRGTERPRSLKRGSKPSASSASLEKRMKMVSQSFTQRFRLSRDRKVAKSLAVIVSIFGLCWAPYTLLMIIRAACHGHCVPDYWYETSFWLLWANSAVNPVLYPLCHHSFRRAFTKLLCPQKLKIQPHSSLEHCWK", "experiment": "Methyl histamine binding in human histamine H3 receptor cell line", "conditions": "read-out: H3 Binding Ki", "description": "Evaluation of Methyl Histamine Binding in Human Histamine H3 Receptor Cell Line\nThe affinity of test compounds for the histamine 3 (H3) receptor is evaluated in the following manner. […] Cells are scraped from the plate, transferred to centrifuge tubes, washed one time in PBS by centrifugation in a Sorvall RT7 Plus centrifuge (2000 rpm 10 minutes, 4° C.). The resulting pellets are stored at −80° C. until ready for use. Cells are re-suspended in buffer (50 mM Tris pH=7.5) and placed in a Dounce homogenizer, douncing ten times to homogenize cells. The homogenate is spun down by centrifugation (Sorvall RT7 Plus, 1800 rpm 10 minutes, 4° C.). The supernatant is placed in a Corex tube and spun down by centrifugation (Sorvall RC 5c Plus, 17,000 rpm 20 minutes, 4° C.). The pellet is resuspended in buffer (50 mM Tris, pH 7.5). Protein concentration (ug/ul) is determined using the Micro-BCA Protein Determination. The binding assay is set up in a 96 well microtiter plate in a total volume of 250 uL. Non-specific binding is determined in the presence of 10 uM clobenpropit. The final radioligand concentration is 1 nM. The test compound is serially diluted using the Beckman Biomek2000 to a final approximate range of 100 uM to 100 pM. Membranes are suspended in buffer, homogenized in 2 bursts of ten seconds using a Vitris mechanical homogenizer set at power setting 5. Ten μg of membranes are added to each well. Following a one hour incubation at 30° C., the reaction is terminated by the addition of ice cold buffer and rapid filtration with a Packard Filtermate Harvester through a GF/B filter pre-soaked with 1% PEI for one hour. The plate is dried for one hour at 37° C. and 60 μL Microscint Scintillant is added to each well. The CPM per well is measured on a Packard Top Count NXT. Ki values are determined in nM. […] CPM values are expressed as % specific binding and plotted vs compound concentration. A curve is fitted using a four-parameter logistic fit and the IC50 value is determined. The Ki is calculated from this using the Cheng-Prusoff equation: […]=IC50/1+(L/Kd) where L=concentration of free radioligand used in the assay, and Kd is the dissociation constant of the radioligand for the receptor. L is determined for each experiment by counting an aliquot of the diluted radioligand (corresponding to that added to each well) and the Kd has previously been determined under identical conditions for this cell line/radioligand.", "units": {"Ki": "nM"}, "values": [
      {"smiles": "C[C@@H]1CCCN1CCN1CCc2cc(Oc3ccc(C#N)nc3)ccc2C1=O", "note": "[Example 51, 5-[(2-{2-[(2R)-2-methylpyrrolidin-1-yl]ethyl}-1-oxo-1,2,3,4-tetrahydroisoquinolin-6-yl)oxy]pyridine-2-carbonitrile]", "Ki": "< 10"},
      {"smiles": "N#Cc1ccc(Oc2ccc3c(c2)CCN(CCN2CCCC2)C3=O)cn1", "note": "[Example 52, 5-{[1-oxo-2-(2-pyrrolidin-1-ylethyl)-1,2,3,4-tetrahydroisoquinolin-6-yl]oxy}pyridine-2-carbonitrile]", "Ki": "< 10"},
      {"smiles": "O=C(c1ccc(-c2ccc3c(c2)CCN(CCN2CCCC2)C3=O)cc1)N1CCCC1", "note": "[Example 54, 6-[4-(pyrrolidin-1-ylcarbonyl)phenyl]-2-(2-pyrrolidin-1-ylethyl)-3,4-dihydroisoquinolin-1(2H)-one hydrochloride]", "Ki": "< 10"},
      {"smiles": "CN(C)C(=O)c1ccc(-c2ccc3c(c2)CCN(CCN2CCCC2)C3=O)cc1", "note": "[Example 56, N,N-dimethyl-4-[1-oxo-2-(2-pyrrolidin-1-ylethyl)-1,2,3,4-tetrahydroisoquinolin-6-yl]benzamide]", "Ki": "< 10"},
      {"smiles": "O=C(NC1CC1)c1ccc(-c2ccc3c(c2)CCN(CCN2CCCC2)C3=O)cc1", "note": "[Example 57, N-cyclopropyl-4-[1-oxo-2-(2-pyrrolidin-1-ylethyl)-1,2,3,4-tetrahydroisoquinolin-6-yl]benzamide]", "Ki": "< 10"},
      {"smiles": "CCNC(=O)c1ccc(-c2ccc3c(c2)CCN(CCN2CCCC2)C3=O)cc1", "note": "[Example 58, N-ethyl-4-[1-oxo-2-(2-pyrrolidin-1-ylethyl)-1,2,3,4-tetrahydroisoquinolin-6-yl]benzamide]", "Ki": "< 10"},
      {"smiles": "CNC(=O)c1ccc(-c2ccc3c(c2)CCN(CCN2CCCC2)C3=O)cc1", "note": "[Example 59, N-methyl-4-[1-oxo-2-(2-pyrrolidin-1-ylethyl)-1,2,3,4-tetrahydroisoquinolin-6-yl]benzamide]", "Ki": "< 10"},
      {"smiles": "O=C(NCC1CC1)c1ccc(-c2ccc3c(c2)CCN(CCN2CCCC2)C3=O)cc1", "note": "[Example 60, N-(cyclopropylmethyl)-4-[1-oxo-2-(2-pyrrolidin-1-ylethyl)-1,2,3,4-tetrahydroiso-quinolin-6-yl]benzamide]", "Ki": "< 10"},
      {"smiles": "CC(C)NC(=O)c1ccc(-c2ccc3c(c2)CCN(CCN2CCCC2)C3=O)cc1", "note": "[Example 61, N-isopropyl-4-[1-oxo-2-(2-pyrrolidin-1-ylethyl)-1,2,3,4-tetrahydroisoquinolin-6-yl]benzamide]", "Ki": "< 10"},
      {"smiles": "CCN(CC)C(=O)c1ccc(-c2ccc3c(c2)CCN(CCN2CCCC2)C3=O)cc1", "note": "[Example 62, N,N-diethyl-4-[1-oxo-2-(2-pyrrolidin-1-ylethyl)-1,2,3,4-tetrahydroisoquinolin-6-yl]benzamide]", "Ki": "< 10"},
      {"smiles": "O=C(NC1CCC1)c1ccc(-c2ccc3c(c2)CCN(CCN2CCCC2)C3=O)cc1", "note": "[Example 63, N-cyclobutyl-4-[1-oxo-2-(2-pyrrolidin-1-ylethyl)-1,2,3,4-tetrahydroisoquinolin-6-yl]benzamide]", "Ki": "< 10"},
      {"smiles": "O=C(c1ccc(-c2ccc3c(c2)CCN(CCN2CCCC2)C3=O)cc1)N1CCC1", "note": "[Example 64, 6-[4-(azetidin-1-ylcarbonyl)phenyl]-2-(2-pyrrolidin-1-ylethyl)-3,4-dihydroisoquinolin-1(2H)-one]", "Ki": "< 10"},
      {"smiles": "CCN(CC)C(=O)c1ccc(-c2ccc3c(c2)CCN(CCN2CCC[C@H]2C)C3=O)cc1", "note": "[Example 65, N,N-diethyl-4-(2-{2-[(2R)-2-methylpyrrolidin-1-yl]ethyl}-1-oxo-1,2,3,4-tetrahydroisoquinolin-6-yl)benzamide]", "Ki": "< 10"},
      {"smiles": "C[C@@H]1CCCN1CCN1CCc2cc(-c3ccc(C(=O)N4CCCC4)cc3)ccc2C1=O", "note": "[Example 66, 2-{2-[(2R)-2-methylpyrrolidin-1-yl]ethyl}-6-[4-(pyrrolidin-1-ylcarbonyl)phenyl]-3,4-dihydroisoquinolin-1(2H)-one]", "Ki": "< 10"},
      {"smiles": "NC(=O)c1ccc(-c2ccc3c(c2)CCN(CCN2CCCC2)C3=O)cc1", "note": "[Example 67, 4-[1-oxo-2-(2-pyrrolidin-1-ylethyl)-1,2,3,4-tetrahydroisoquinolin-6-yl]benzamide]", "Ki": "< 10"},
      {"smiles": "O=C(NCCF)c1ccc(-c2ccc3c(c2)CCN(CCN2CCCC2)C3=O)cc1", "note": "[Example 68, N-(2-fluoroethyl)-4-[1-oxo-2-(2-pyrrolidin-1-ylethyl)-1,2,3,4-tetrahydroisoquinolin-6-yl]benzamide]", "Ki": "< 10"},
      {"smiles": "COCCNC(=O)c1ccc(-c2ccc3c(c2)CCN(CCN2CCCC2)C3=O)cc1", "note": "[Example 69, N-(2-methoxyethyl)-4-[1-oxo-2-(2-pyrrolidin-1-ylethyl)-1,2,3,4-tetrahydroisoquinolin-6-yl]benzamide]", "Ki": "< 10"},
      {"smiles": "CC(C)OCCNC(=O)c1ccc(-c2ccc3c(c2)CCN(CCN2CCCC2)C3=O)cc1", "note": "[Example 70, N-(2-isopropoxyethyl)-4-[1-oxo-2-(2-pyrrolidin-1-ylethyl)-1,2,3,4-tetrahydroisoquinolin-6-yl]benzamide]", "Ki": "< 10"},
      {"smiles": "O=C(NCCOc1ccccc1)c1ccc(-c2ccc3c(c2)CCN(CCN2CCCC2)C3=O)cc1", "note": "[Example 71, 4-[1-oxo-2-(2-pyrrolidin-1-ylethyl)-1,2,3,4-tetrahydroisoquinolin-6-yl]-N-(2-phenoxyethyl)-benzamide]", "Ki": "50.1 to 100"},
      {"smiles": "CCOCCNC(=O)c1ccc(-c2ccc3c(c2)CCN(CCN2CCCC2)C3=O)cc1", "note": "[Example 72, N-(2-ethoxyethyl)-4-[1-oxo-2-(2-pyrrolidin-1-ylethyl)-1,2,3,4-tetrahydroisoquinolin-6-yl]benzamide]", "Ki": "10.1 to 25"},
      {"smiles": "C[C@@H]1CCCN1CCN1CCc2cc(-c3ccc(C(=O)NCC4CC4)cc3)ccc2C1=O", "note": "[Example 73, N-(cyclopropylmethyl)-4-(2-{2-[(2R)-2-methylpyrrolidin-1-yl]ethyl}-1-oxo-1,2,3,4-tetrahydroisoquinolin-6-yl)benzamide]", "Ki": "< 10"},
      {"smiles": "C[C@@H]1CCCN1CCN1CCc2cc(-c3ccc(C(=O)NC4CCC4)cc3)ccc2C1=O", "note": "[Example 74, N-cyclobutyl-4-(2-{2-[(2R)-2-methylpyrrolidin-1-yl]ethyl}-1-oxo-1,2,3,4-tetrahydroisoquinolin-6-yl)benzamide]", "Ki": "< 10"},
      {"smiles": "CCNC(=O)c1ccc(-c2ccc3c(c2)CCN(CCN2CCC[C@H]2C)C3=O)cc1", "note": "[Example 75, N-ethyl-4-(2-{2-[(2R)-2-methylpyrrolidin-1-yl]ethyl}-1-oxo-1,2,3,4-tetrahydroisoquinolin-6-yl)benzamide]", "Ki": "< 10"},
      {"smiles": "C[C@@H]1CCCN1CCN1CCc2cc(-c3ccc(C(=O)NC4CC4)cc3)ccc2C1=O", "note": "[Example 76, N-cyclopropyl-4-(2-{2-[(2R)-2-methylpyrrolidin-1-yl]ethyl}-1-oxo-1,2,3,4-tetrahydroisoquinolin-6-yl)benzamide]", "Ki": "< 10"},
      {"smiles": "CC(C)NC(=O)c1ccc(-c2ccc3c(c2)CCN(CCN2CCC[C@H]2C)C3=O)cc1", "note": "[Example 77, N-isopropyl-4-(2-{2-[(2R)-2-methylpyrrolidin-1-yl]ethyl}-1-oxo-1,2,3,4-tetrahydroisoquinolin-6-yl)benzamide]", "Ki": "< 10"},
      {"smiles": "CNC(=O)c1ccc(-c2ccc3c(c2)CCN(CCN2CCC[C@H]2C)C3=O)cc1", "note": "[Example 78, N-methyl-4-(2-{2-[(2R)-2-methylpyrrolidin-1-yl]ethyl}-1-oxo-1,2,3,4-tetrahydroisoquinolin-6-yl)benzamide]", "Ki": "< 10"},
      {"smiles": "O=C(c1ccc(-c2ccc3c(c2)CCN(CCN2CCCC2)C3=O)cc1)N1CCCCC1", "note": "[Example 79, 6-[4-(piperidin-1-ylcarbonyl)phenyl]-2-(2-pyrrolidin-1-ylethyl)-3,4-dihydroisoquinolin-1(2H)-one]", "Ki": "< 10"},
      {"smiles": "C[C@@H]1CCCN1CCN1CCc2cc(-c3ccc(C(=O)NC4CCCC4)cc3)ccc2C1=O", "note": "[Example 80, N-cyclopentyl-4-(2-{2-[(2R)-2-methylpyrrolidin-1-yl]ethyl}-1-oxo-1,2,3,4-tetrahydroisoquinolin-6-yl)benzamide]", "Ki": "< 10"},
      {"smiles": "C[C@H]1CCCN1C(=O)c1ccc(-c2ccc3c(c2)CCN(CCN2CCCC2)C3=O)cc1", "note": "[Example 81, 6-(4-{[(2S)-2-methylpyrrolidin-1-yl]carbonyl}phenyl)-2-(2-pyrrolidin-1-ylethyl)-3,4-dihydroisoquinolin-1(2H)-one]", "Ki": "< 10"},
      {"smiles": "C[C@@H]1CCCN1C(=O)c1ccc(-c2ccc3c(c2)CCN(CCN2CCCC2)C3=O)cc1", "note": "[Example 82, 6-(4-{[(2R)-2-methylpyrrolidin-1-yl]carbonyl}phenyl)-2-(2-pyrrolidin-1-ylethyl)-3,4-dihydroisoquinolin-1(2H)-one]", "Ki": "< 10"}
    ]}
  ]
}
